This note sets out measurements from ChEMBL document CHEMBL5154682, “TDP-43 Modulation by Tau-Tubulin Kinase 1 Inhibitors: A New Avenue for Future Amyotrophic Lateral Sclerosis Therapy” (J Med Chem, 2022).

Data set [1] deals with SH-SY5Y. Briefly: Neuroprotective activity against ethacrynic acid-induced neurotoxicity human SH-SY5Y cells assessed as decrease in TDP-43 phosphorylation at Ser409 at 5 uM preincubated for 1 hr followed by EA addition and further incubated for 24 hrs by Western blot analysis. Format: functional, cell-based. The settings on record: time 25.0 hrs.
Data set [2] concerns SH-SY5Y. Description: Neuroprotective activity against okadaic acid-induced neurotoxicity in human SH-SY5Y cells assessed as reduction in Tau hyperphosphorylation by measuring cell viability at 1 to 5 uM incubated for 24 hrs by MTT assay. The class given is functional, cell-based. Conditions: dose 1-5 µM.
Data set [3] in a line: Permeability of the compound at pH 7.4 PBS/EtOH buffer (70:30) by PAMPA-BBB assay.
Data set [4] concerns SH-SY5Y. Description: Neuroprotective activity against ethacrynic acid-induced neurotoxicity human SH-SY5Y cells assessed as increase in cell viability at 5 uM preincubated for 1 hr followed by ethacrynic acid addition and further incubated for 24 hrs by MTT assay. Conditions: time 25.0 hrs. The class given is functional, cell-based. In general terms: Tetrazolium dyes change colour on reduction, which living cells bring about.

The target of data set [5] is T1, Tau-tubulin kinase 1 (Homo sapiens, UniProt Q5TCY1).
T1 sequence (Q5TCY1 whole entry): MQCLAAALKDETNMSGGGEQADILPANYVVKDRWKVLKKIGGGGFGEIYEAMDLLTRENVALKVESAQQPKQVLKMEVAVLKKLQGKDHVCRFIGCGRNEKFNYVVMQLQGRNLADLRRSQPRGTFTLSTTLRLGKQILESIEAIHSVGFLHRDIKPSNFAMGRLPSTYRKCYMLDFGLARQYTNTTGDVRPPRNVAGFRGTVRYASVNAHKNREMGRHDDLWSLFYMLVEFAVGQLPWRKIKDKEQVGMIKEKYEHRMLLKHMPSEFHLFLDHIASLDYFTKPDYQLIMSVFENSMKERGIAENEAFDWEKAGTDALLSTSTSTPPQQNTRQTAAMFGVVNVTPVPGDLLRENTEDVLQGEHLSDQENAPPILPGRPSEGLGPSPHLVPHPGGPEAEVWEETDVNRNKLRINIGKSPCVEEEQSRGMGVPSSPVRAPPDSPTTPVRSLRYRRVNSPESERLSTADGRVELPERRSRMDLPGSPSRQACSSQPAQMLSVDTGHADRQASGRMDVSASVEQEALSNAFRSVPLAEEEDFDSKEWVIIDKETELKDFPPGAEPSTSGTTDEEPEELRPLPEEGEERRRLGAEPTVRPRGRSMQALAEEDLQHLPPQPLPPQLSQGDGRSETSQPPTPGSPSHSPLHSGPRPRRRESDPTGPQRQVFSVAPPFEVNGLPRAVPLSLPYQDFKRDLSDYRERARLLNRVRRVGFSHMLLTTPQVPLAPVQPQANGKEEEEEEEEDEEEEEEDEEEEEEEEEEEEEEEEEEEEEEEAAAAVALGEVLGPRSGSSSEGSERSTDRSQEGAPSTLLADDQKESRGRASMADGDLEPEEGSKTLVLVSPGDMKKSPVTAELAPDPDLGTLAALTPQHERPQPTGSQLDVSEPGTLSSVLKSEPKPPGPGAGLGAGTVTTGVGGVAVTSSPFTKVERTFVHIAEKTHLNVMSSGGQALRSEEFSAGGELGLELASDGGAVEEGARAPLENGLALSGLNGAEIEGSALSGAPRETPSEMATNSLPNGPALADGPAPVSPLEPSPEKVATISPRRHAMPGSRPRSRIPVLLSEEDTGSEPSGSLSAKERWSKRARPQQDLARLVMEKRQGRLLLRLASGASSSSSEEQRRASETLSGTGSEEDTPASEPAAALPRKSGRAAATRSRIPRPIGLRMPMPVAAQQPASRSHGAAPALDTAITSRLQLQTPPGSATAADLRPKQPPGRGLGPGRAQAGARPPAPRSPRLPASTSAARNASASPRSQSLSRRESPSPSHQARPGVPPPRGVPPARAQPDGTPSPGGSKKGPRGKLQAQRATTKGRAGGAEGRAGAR
Data set [6] has as its target T2, Tau-tubulin kinase 2 (Homo sapiens, UniProt Q6IQ55). Description: Inhibition of TTBK2 (unknown origin).
The target of data set [7] is T1, Tau-tubulin kinase 1. Briefly: Inhibition of TTBK1 in sporadic ALS patient derived human lymphoblasts assessed as reduction in cytosolic TDP-43 levels at 5 to 10 uM treated for 24 hrs by Western blot analysis. Format: cell-based. Conditions: Lymphoblastoid cell, dose 5-10 µM. (In general: Immunoblotting shows a protein as a band on a membrane.)
Data set [8] addresses T2, Tau-tubulin kinase 2. The settings on record: dose 10.0 µM, time 30.0 min.
The target in data set [9] is T1, Tau-tubulin kinase 1. Briefly: Inhibition of TTBK1 in sporadic ALS patient derived human lymphoblasts assessed as reduction in TDP-43 phosphorylation levels at 5 to 10 uM treated for 24 hrs by Western blot analysis. The class given is cell-based. The settings on record: Lymphoblastoid cell, dose 5-10 µM.
The target in data set [10] is T1, Tau-tubulin kinase 1. Description: Inhibition of TTBK1 in sporadic ALS patient derived human lymphoblasts assessed as recovery nuclear localization of TDP-43 levels at 5 to 10 uM treated for 24 hrs by Western blot analysis. The class given is cell-based. The settings on record: Lymphoblastoid cell, dose 5-10 µM.
Data set [11] can be described thus: Half life in BALB/c mouse brain at 5 mg/kg, ip measured for 0.08 to 24 hrs by LC-MS/MS analysis. The class given is ADME, organism-based. Conditions: time 0.08-24 hrs.
The nature of data set [12]: Tmax in BALB/c mouse plasma at 10 mg/kg, po measured for 0.25 to 24 hrs by LC-MS/MS analysis. Conditions: time 0.25-24 hrs. The class given is ADME, organism-based.
Data set [13] can be described thus: Tmax in BALB/c mouse brain at 10 mg/kg, po measured for 0.25 to 24 hrs by LC-MS/MS analysis. The class given is ADME, organism-based. Conditions: time 0.25-24 hrs.
The nature of data set [14]: Permeability coefficient in BALB/c mouse assessed as brain to plasma ratio at 5 mg/kg, ip measured for 0.08 to 24 hrs by LC-MS/MS analysis. The class given is ADME, organism-based. Conditions: time 0.08-24 hrs.
Data set [15] in a line: Half life in BALB/c mouse plasma at 5 mg/kg, ip measured for 0.08 to 24 hrs by LC-MS/MS analysis. The class given is ADME, organism-based. The settings on record: time 0.08-24 hrs.
For data set [16], the system named is Mus musculus. Description: Protection of neuron degeneration in Prp-hTDP-43 (A315T) transgenic mouse assessed as prevention of reduction in number of motor neurons in ventral horn of spinal cord at 5 mg/kg, ip qd for 30 days by Nissl staining based immunohistochemistry analysis. The class given is functional, organism-based. Conditions: time 30.0 day.
Data set [17] deals with T1, Tau-tubulin kinase 1. Description: Inhibition of recombinant human TTBK1 in ethacrynic acid-treated human SH-SY5Y cells assessed as nuclear localization by measuring reduction in cytosolic TDP-43 accumulation at 5 uM preincubated for 1 hr followed by EA addition and further incubated for 24 hrs by confocal laser scanning microscopy. The settings on record: time 25.0 hrs.

Data set [18] has as its system Mus musculus. Briefly: Immunomodulatory effect in Prp-hTDP-43 (A315T) transgenic mouse assessed as decrease in Iba-1 immunoreactivity in microglial cells at 5 mg/kg, ip qd for 30 days by immunofluorescence analysis. Format: functional, organism-based. The settings on record: time 30.0 day.
The nature of data set [19]: Cmax in BALB/c mouse plasma at 5 mg/kg, ip measured for 0.08 to 24 hrs by LC-MS/MS analysis. The arrangement: dose 5 mg/kg, time 0.08-24 hrs, route ip. The class given is ADME, organism-based.
Data set [20] relates to Mus musculus. Description: Protection of neuron degeneration in Prp-hTDP-43 (A315T) transgenic mouse assessed as prevention of reduction in number of motor neurons in ventral horn of spinal cord at 5 mg/kg, ip qd for 30 days by choline acetyl transferase staining based immunohistochemistry analysis. Format: functional, organism-based. The settings on record: time 30.0 day.

Data set [21] is described as follows: Permeability in BALB/c mouse assessed as brain to plasma ratio at 10 mg/kg, po measured for 0.25 to 24 hrs by LC-MS/MS analysis. Format: ADME, organism-based. The settings on record: time 0.25-24 hrs.
A short description of data set [22]: Cmax in BALB/c mouse brain at 10 mg/kg, po measured for 0.25 to 24 hrs by LC-MS/MS analysis. Format: ADME, organism-based. The arrangement: dose 10 mg/kg, time upper 24 hrs, time lower 0.25 hrs, route po.
In data set [23] the test system is Mus musculus. Description: Immunomodulatory effect in Prp-hTDP-43 (A315T) transgenic mouse assessed as reduction in iNOS expression in lumbar region of spinal cord at 5 mg/kg, ip qd for 30 days by Western blot analysis. The class given is functional, organism-based. Conditions: time 30.0 day.
For data set [24], the target named is Tau tubulin kinase 1 (Rattus norvegicus) (UniProt A0A0G2JTK1). Description: Inhibition of TTBK1 in Wistar rat primary microglia assessed as reduction in LPS-stimulated iNOS induction at 5 to 25 uM measured after 24 hrs by western blot analysis. Format: cell-based. The settings on record: dose 5-25 µM.
Sequence of Tau tubulin kinase 1 (Rattus norvegicus) (A0A0G2JTK1 as listed by the source): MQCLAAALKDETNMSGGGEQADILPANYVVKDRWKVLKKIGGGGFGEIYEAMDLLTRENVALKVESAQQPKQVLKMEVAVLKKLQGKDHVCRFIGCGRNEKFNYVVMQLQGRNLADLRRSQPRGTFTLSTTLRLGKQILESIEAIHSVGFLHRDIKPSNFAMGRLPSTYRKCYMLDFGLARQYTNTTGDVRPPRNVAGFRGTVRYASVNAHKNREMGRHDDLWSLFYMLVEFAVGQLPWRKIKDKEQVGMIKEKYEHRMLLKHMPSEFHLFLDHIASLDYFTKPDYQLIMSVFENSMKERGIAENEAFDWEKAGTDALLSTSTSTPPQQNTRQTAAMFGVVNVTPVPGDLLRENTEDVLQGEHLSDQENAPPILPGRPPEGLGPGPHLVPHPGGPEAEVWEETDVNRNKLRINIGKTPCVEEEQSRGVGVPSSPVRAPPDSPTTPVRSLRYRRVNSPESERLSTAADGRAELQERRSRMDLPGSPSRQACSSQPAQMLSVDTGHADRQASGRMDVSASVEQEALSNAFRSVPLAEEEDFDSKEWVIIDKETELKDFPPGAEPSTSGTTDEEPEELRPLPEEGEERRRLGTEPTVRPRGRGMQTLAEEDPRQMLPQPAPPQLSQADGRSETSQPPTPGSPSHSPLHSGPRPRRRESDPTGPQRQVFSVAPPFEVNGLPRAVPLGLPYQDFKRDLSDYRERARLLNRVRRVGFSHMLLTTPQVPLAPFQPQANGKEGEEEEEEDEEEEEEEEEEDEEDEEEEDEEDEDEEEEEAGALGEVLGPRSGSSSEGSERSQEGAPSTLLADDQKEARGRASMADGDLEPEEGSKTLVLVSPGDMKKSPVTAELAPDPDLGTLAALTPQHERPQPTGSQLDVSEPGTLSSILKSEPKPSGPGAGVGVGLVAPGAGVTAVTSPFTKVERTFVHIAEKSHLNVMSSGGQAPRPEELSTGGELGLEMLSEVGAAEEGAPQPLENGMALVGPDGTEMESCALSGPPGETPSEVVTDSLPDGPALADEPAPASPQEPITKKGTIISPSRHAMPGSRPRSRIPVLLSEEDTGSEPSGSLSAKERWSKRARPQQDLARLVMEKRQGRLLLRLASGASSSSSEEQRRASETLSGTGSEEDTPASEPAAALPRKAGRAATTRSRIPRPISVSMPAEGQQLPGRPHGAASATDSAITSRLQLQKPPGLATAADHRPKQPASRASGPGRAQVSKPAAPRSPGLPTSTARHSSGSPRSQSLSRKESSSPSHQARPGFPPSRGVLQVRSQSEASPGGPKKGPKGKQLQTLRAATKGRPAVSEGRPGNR
Data set [25] concerns Mus musculus. Description: Immunomodulatory effect in Prp-hTDP-43 (A315T) transgenic mouse assessed as decrease in GFAP immunoreactivity in astrocytes at 5 mg/kg, ip qd for 30 days by immunofluorescence analysis. The class given is functional, organism-based. The settings on record: time 30.0 day.
Data set [26] in a line: Half life in BALB/c mouse plasma at 10 mg/kg, po measured for 0.25 to 24 hrs by LC-MS/MS analysis. Format: ADME, organism-based. Conditions: time 0.25-24 hrs.
The nature of data set [27]: AUClast in BALB/c mouse brain at 5 mg/kg, ip measured for 0.08 to 24 hrs by LC-MS/MS analysis. Format: ADME, organism-based. The arrangement: dose 5 mg/kg, time 0.08-24 hrs, route ip.
The nature of data set [28]: Half life in BALB/c mouse brain at 10 mg/kg, po measured for 0.25 to 24 hrs by LC-MS/MS analysis. The class given is ADME, organism-based. Conditions: time 0.25-24 hrs.
Data set [29] relates to Mus musculus. Briefly: Prevention of TDP-43 phosphorylation level in Wild type mouse at lumbar region of spinal cord tissue at 5 mg/kg, ip qd for 30 days by Immunoblot assay. The class given is functional, organism-based. Conditions: time 30.0 day.
Data set [30] in a line: Cmax in BALB/c mouse plasma at 10 mg/kg, po measured for 0.25 to 24 hrs by LC-MS/MS analysis. Further details: time upper 24 hrs, time lower 0.25 hrs, dose 10 mg/kg, route po. The class given is ADME, organism-based.
Data set [31] can be described thus: AUClast in BALB/c mouse brain at 10 mg/kg, po measured for 0.25 to 24 hrs by LC-MS/MS analysis. The class given is ADME, organism-based. Further details: dose 10 mg/kg, time 0.25-24 hrs, route po.
The nature of data set [32]: Cmax in BALB/c mouse brain at 5 mg/kg, ip measured for 0.08 to 24 hrs by LC-MS/MS analysis. The class given is ADME, organism-based. Further details: dose 5 mg/kg, time upper 24 hrs, time lower 0.08 hrs, route ip.
Data set [33] is described as follows: Tmax in BALB/c mouse plasma at 5 mg/kg, ip measured for 0.08 to 24 hrs by LC-MS/MS analysis. Conditions: time 0.08-24 hrs. The class given is ADME, organism-based.
The nature of data set [34]: AUClast in BALB/c mouse plasma at 10 mg/kg, po measured for 0.25 to 24 hrs by LC-MS/MS analysis. Format: ADME, organism-based. The arrangement: dose 10 mg/kg, time upper 24 hrs, time lower 0.25 hrs, route po.
Data set [35] in a line: AUClast in BALB/c mouse plasma at 5 mg/kg, ip measured for 0.08 to 24 hrs by LC-MS/MS analysis. Format: ADME, organism-based. The arrangement: dose 5 mg/kg, time 0.08-24 hrs, route ip.
In data set [36] the test system is Mus musculus. Description: Immunomodulatory effect in Prp-hTDP-43 (A315T) transgenic mouse assessed as increase in […] expression in lumbar region of spinal cord at 5 mg/kg, ip qd for 30 days by western blot analysis. Format: functional, organism-based. The settings on record: time 30.0 day.
The nature of data set [37]: Tmax in BALB/c mouse brain at 5 mg/kg, ip measured for 0.08 to 24 hrs by LC-MS/MS analysis. Format: ADME, organism-based. The settings on record: time 0.08-24 hrs.

Calls of active or inactive are those of the source. The calls are words filed in the database; no cut-off is given here.

In general, IC50 refers to the point on the concentration scale where inhibition reaches its midpoint. As usually defined, the inhibition is the drop in the measured response relative to a control, in per cent. By half-life is commonly meant the time in which the quantity being followed falls by half. Read a low half-life as fast loss. Broadly, the Tmax is the time from dosing to the highest level. The term Kp denotes tissue or fluid exposure divided by exposure in the circulation. The Cmax is the highest concentration seen after dosing. By AUC(0-t) is commonly meant the area under the concentration-time curve up to a stated or last time point. High values mean high exposure, low ones low exposure.

T2 sequence (Q6IQ55 whole entry): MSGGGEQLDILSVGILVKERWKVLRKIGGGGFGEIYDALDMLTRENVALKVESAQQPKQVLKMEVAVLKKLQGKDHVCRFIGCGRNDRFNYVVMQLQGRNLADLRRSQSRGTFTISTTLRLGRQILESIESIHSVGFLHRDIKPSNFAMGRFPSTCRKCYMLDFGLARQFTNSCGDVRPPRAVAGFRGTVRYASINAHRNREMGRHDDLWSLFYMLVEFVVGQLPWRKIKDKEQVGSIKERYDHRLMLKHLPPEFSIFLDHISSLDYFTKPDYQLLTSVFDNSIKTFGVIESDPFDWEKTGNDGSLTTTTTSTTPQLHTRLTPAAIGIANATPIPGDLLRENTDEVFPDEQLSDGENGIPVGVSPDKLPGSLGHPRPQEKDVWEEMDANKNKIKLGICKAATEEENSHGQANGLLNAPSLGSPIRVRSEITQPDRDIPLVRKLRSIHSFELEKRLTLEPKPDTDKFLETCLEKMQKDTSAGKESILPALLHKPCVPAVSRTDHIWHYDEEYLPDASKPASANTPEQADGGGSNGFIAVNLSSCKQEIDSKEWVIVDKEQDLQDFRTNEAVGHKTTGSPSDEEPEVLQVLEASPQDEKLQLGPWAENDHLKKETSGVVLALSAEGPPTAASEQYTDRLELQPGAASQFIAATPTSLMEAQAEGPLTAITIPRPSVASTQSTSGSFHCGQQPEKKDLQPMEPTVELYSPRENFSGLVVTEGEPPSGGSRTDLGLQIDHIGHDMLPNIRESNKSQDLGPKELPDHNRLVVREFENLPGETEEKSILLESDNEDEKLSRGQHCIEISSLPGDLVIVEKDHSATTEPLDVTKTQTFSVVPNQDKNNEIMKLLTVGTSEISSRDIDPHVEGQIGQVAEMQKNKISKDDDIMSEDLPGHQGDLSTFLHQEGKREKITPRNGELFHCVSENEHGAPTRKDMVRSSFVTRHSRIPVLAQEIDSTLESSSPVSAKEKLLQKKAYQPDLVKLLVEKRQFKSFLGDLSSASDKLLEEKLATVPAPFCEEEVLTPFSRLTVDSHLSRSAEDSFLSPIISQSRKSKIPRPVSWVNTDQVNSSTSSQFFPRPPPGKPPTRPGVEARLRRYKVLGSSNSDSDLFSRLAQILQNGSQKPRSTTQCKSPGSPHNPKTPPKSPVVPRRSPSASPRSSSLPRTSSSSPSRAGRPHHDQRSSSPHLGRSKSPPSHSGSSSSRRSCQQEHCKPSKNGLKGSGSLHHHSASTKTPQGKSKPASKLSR

Regarding `Cc1ccc(Oc2ccc(Nc3ncnc4[nH]ccc34)cc2)cc1`, the outcome in data set [1], in data set [2] and in data set [4] was Active. Besides, the permeability entry in data set [3] is “Permeable”.

For the compound `CC[C@@](C)(O)C#Cc1cc2c(ccn2-c2cc(OC)nc(N)n2)cn1`, the IC50 in data set [5] was found to be 1.6 nM; in [6] it was 2.7 nM.

With `Clc1cccc(Oc2ccc(Nc3ncnc4[nH]ccc34)cc2)c1`, the outcome in data set [7], in data set [9], in data set [10], in [1], in [2] and in data set [4] was Active. The inhibition in data set [8] is 1%. In addition, in data set [3], the permeability entry is “Permeable”.

Consider `CC1(N)CCN(Cc2ccn3ncnc(Nc4cc(O)cc(Br)c4)c23)CC1`, for which the IC50 in data set [6] was 170 nM.

Regarding `Clc1ccc(Oc2ccc(Nc3ncnc4[nH]ccc34)cc2)cc1`, the outcome in [7], in data set [16], in data set [9], in data set [18], in [20] and in [10] was Active. Also, the result in data set [23], in data set [1], in data set [25], in data set [29], in [2] and in [4] was Active. The result in [36] was Active. Moreover, the half-life in data set [11] is 3.46 h; in data set [15] it was 3.75 h; in data set [26], 3.3 h; in data set [28], 3.4 h. The Tmax in [12] was 2 h; in data set [13] it was 2 h; in data set [33], 1 h; in [37], 1 h. In addition, the figures for the Kp in [14] and in data set [21] were 2.63 and 2.67, respectively. Further, the inhibition entry in [17] and in [24] was “Active” throughout. Further, the Cmax in [19] was determined as 1430 ng/mL; in data set [22] it was 4920 ng/mL; in data set [30], 2270 ng/mL; in data set [32], 4170 ng/mL. Besides, the AUC(0-t) was 15700 ng·h/mL in data set [27], 49200 ng·h/mL in data set [31], 18400 ng·h/mL in data set [34] and 5960 ng·h/mL in data set [35]. The permeability entry in data set [3] was “Permeable”.
